Reference: patent EP2096113A1, “9-substituted camptothecin derivatives as antitumor compounds” (SIGMA-TAU Industrie Farmaceutiche Riunite S.p.A., priority 2008, dated 2009)

System: NCI-H460 non-microcytoma lung cancer cells
Assay: Cytotoxic activity on NCI-H460 cells (sulforodamine B test)
Assay type: cell-based
Details: product concentration that inhibits cell survival by 50%; 2 hours incubation with products, then another 72 hours in drug-free medium; optical density at 540 nm; read-out: IC50 (µM) H-460
Protocol: NCI-H460 non-microcytoma lung cancer cells were kept in RPMI 1640 culture medium containing 10% FCS and 1% glutamine. The cytotoxicity test to analyse the activity of the molecules was performed as follows. The cells were seeded in a volume of 250 µl in 96-well plates and incubated for 2 hours at 37°C with scalar concentrations of the products in a humidified atmosphere containing 5% CO2. At the end of the incubation, the molecules were removed by overturning the plates and adding sterile buffered saline solution (PBS) three times. The RPMI 1640 culture medium containing 10% FCS (200 µl) was added to the wells and the plates were incubated for another 72 hours. At the end of the incubation, the plates were overturned again and dried on paper, before adding 200 µl of PBS and 50 µl of 80% TCA. The plates were incubated again in ice for at least 1 hour. The TCA was removed by overturning the plates and the plates were first dried on paper and then washed three times by immersion in distilled water and overturning. The plates were dried first on paper and then in a thermostatically regulated incubator at 60°C for 10 min. 200 µl of 0.4% sulforodamine B in 1% acetic acid were added to all wells. The plates were incubated at room temperature for another 30 min. The sulforodamine B was removed by overturning, the plates were washed by immersion in 1% acetic acid three times and then dried first on blotting paper and then in the thermostat at 60°C for 10 min. Lastly, 200 µl of Tris base 10 mM were added to all wells and the plates were subjected to stirring for at least 20 min. The optical density was measured with a Multiskan spectrophotometer at 540 nm. Incubation with the products was capable of inhibiting proliferation in a concentration-dependent manner. Table 1 presents the IC50 values (product concentration that inhibits cell survival by 50%]. IC50 values for topotecan have also been reported for comparison purposes (Dallavalle S. et al., J. Med. Chem., 44, 3264-74, 2001). Table 1.

Row | Structure (SMILES) | IC50 [µM]
1 | CC[C@@]1(O)C(=O)OCc2c1cc1n(c2=O)Cc2cc3c(C=NOC(C)(C)C)c(OC)ccc3nc2-1 [10-OCH3-CPT-9-CH=NOC(CH3)3, 10-methoxy-9-tert-butoxyiminomethylcamptothecin] | 0.31
2 | CC[C@@]1(O)C(=O)OCc2c1cc1n(c2=O)Cc2cc3c(C#N)c(OC)ccc3nc2-1 [10-OCH3-CPT-9-CN, 10-Methoxy-9-cyanocamptothecin] | 0.27
3 | CC[C@@]1(O)C(=O)OCc2c1cc1n(c2=O)Cc2cc3c(C=NOC(C)(C)C)c(O)ccc3nc2-1 [10-OH-CPT-9-CH=NOC(CH3)3, 10-hydroxy-9-tert-butoxyiminomethylcamptothecin] | 0.35
4 | CC[C@@]1(O)C(=O)OCc2c1cc1n(c2=O)Cc2cc3c(C=NOC(C)(C)C)cccc3nc2-1 [CPT-9-CH=NOC(CH3)3, 9-tert-Butoxyiminomethylcamptothecin] | 0.067
5 | CC[C@@]1(O)C(=O)OCc2c1cc1n(c2=O)Cc2cc3c(C=NOCCN)cccc3nc2-1 [CPT-9-CH=NOCH2CH2NH2, 9-(2-Aminoethoxy)iminomethylcamptothecin] | 2.53

System: NCI-H460 non-microcytoma lung cancer cells
Assay: not given
Details: topotecan value reported for comparison, from Dallavalle S. et al., J. Med. Chem., 44, 3264-74, 2001; read-out: IC50 (µM) H-460; cited from earlier work

Row | Structure (SMILES) | IC50 [µM]
6 | CC[C@@]1(O)C(=O)OCc2c1cc1n(c2=O)Cc2cc3c(CN(C)C)c(O)ccc3nc2-1 [topotecan, 10-hydroxy-9-dimethylaminomethylcamptothecin] | 1.38
